Holding throughout (assay type): functional
The test system of test [1] is Pseudomonas aeruginosa. Put plainly: Increase in ampDh3 gene expression in Pseudomonas aeruginosa 164M1-94C overexpressing mexCD-oprJ genes by RT-PCR relative to wild-type.
Test [2] relates to Pseudomonas aeruginosa. In words: Increase in ampD gene expression in Pseudomonas aeruginosa 164M1-94C overexpressing mexCD-oprJ genes by RT-PCR relative to wild-type.
Test [3] relates to Pseudomonas aeruginosa. In words: Antibacterial activity against Pseudomonas aeruginosa 164M1 harboring p26PAD1 plasmid containing ampD gene.
Test [4] deals with Pseudomonas aeruginosa. In words: Antibacterial activity against Pseudomonas aeruginosa 164M1.
Test [5] has as its system Pseudomonas aeruginosa. In words: Increase in ampDh2 gene expression in Pseudomonas aeruginosa 164M1-84C overexpressing mexCD-oprJ genes by RT-PCR relative to wild-type.
Test [6] relates to Pseudomonas aeruginosa. Put plainly: Antibacterial activity against mexCD-oprJ overexpressing Pseudomonas aeruginosa 164M1-84C harboring p26PAD1 plasmid containing ampD gene.
Test [7] has as its system Pseudomonas aeruginosa. Put plainly: Increase in ampDh3 gene expression in Pseudomonas aeruginosa 164M1 by RT-PCR relative to wild-type.
Test [8] concerns Pseudomonas aeruginosa. Put plainly: Increase in ampDh2 gene expression in Pseudomonas aeruginosa 164M1-94C overexpressing mexCD-oprJ genes by RT-PCR relative to wild-type.
In test [9] the test system is Pseudomonas aeruginosa. Put plainly: Increase in ampDh3 gene expression in Pseudomonas aeruginosa 164M1-84C overexpressing mexCD-oprJ genes by RT-PCR relative to wild-type.
The subject of test [10] is Pseudomonas aeruginosa. Put plainly: Increase in ampC gene expression in mexCD-oprJ overexpressing Pseudomonas aeruginosa 164M1-94C harboring p26PAD1 plasmid containing ampD gene by RT-PCR relative to wild-type.
Test [11] has as its system Pseudomonas aeruginosa. Put plainly: Increase in ampC gene expression in Pseudomonas aeruginosa 164M1 by RT-PCR relative to wild-type.
In test [12] the test system is Pseudomonas aeruginosa. Put plainly: Increase in ampC gene expression in Pseudomonas aeruginosa 164M1-94C overexpressing mexCD-oprJ genes by RT-PCR relative to wild-type.
Test [13] relates to Pseudomonas aeruginosa. In words: Increase in ampD gene expression in Pseudomonas aeruginosa 164M1-84C overexpressing mexCD-oprJ genes by RT-PCR relative to wild-type.
Test [14] deals with Pseudomonas aeruginosa. In words: Increase in ampD gene expression in Pseudomonas aeruginosa 164M1 by RT-PCR relative to wild-type.
Test [15] has as its system Pseudomonas aeruginosa. In words: Antibacterial activity against Pseudomonas aeruginosa 164M1-94C overexpressing mexCD-oprJ genes.
In test [16] the test system is Pseudomonas aeruginosa. Put plainly: Increase in ampDh2 gene expression in Pseudomonas aeruginosa 164M1 by RT-PCR relative to wild-type.
Test [17] relates to Pseudomonas aeruginosa. Put plainly: Antibacterial activity against mexCD-oprJ overexpressing Pseudomonas aeruginosa 164M1-94C harboring p26PAD1 plasmid containing ampD gene.
Test [18] has as its system Pseudomonas aeruginosa. In words: Increase in ampC gene expression in Pseudomonas aeruginosa 164M1-84C overexpressing mexCD-oprJ genes by RT-PCR relative to wild-type.
Test [19] deals with Pseudomonas aeruginosa. In words: Antibacterial activity against Pseudomonas aeruginosa 164.
The subject of test [20] is Pseudomonas aeruginosa. Put plainly: Antibacterial activity against Pseudomonas aeruginosa 164M1-84C overexpressing mexCD-oprJ genes.
For test [21], the system named is Pseudomonas aeruginosa. In words: Increase in ampC gene expression in Pseudomonas aeruginosa 164M1 harboring p26PAD1 plasmid containing ampD gene by RT-PCR relative to wild-type.

≈ marks a conversion by molar mass, not a printed value.

One may read the MIC as the smallest concentration in the dilution series that meets the test's criterion for growth inhibition. Higher therefore signals weaker potency. As to `CC(C)(O/N=C(\C(=O)N[C@@H]1C(=O)N2C(C(=O)[O-])=C(C[n+]3ccccc3)CS[C@H]12)c1csc(N)n1)C(=O)O` [CEFTAZIDIME], the “fold change (FC)” value is 3.1 in the test with Pseudomonas aeruginosa [1]; 1.1 with Pseudomonas aeruginosa [2]; 1.5 in the test on Pseudomonas aeruginosa [5]; 2.1 in the test with Pseudomonas aeruginosa [7]; 2.6 with Pseudomonas aeruginosa [8]; 1.6 in the test with Pseudomonas aeruginosa [9]. Besides, the “fold change (FC)” value with Pseudomonas aeruginosa [10] stood at 0.91; in the test on Pseudomonas aeruginosa [11], 99; in the test with Pseudomonas aeruginosa [12], 1165; with Pseudomonas aeruginosa [13], 1.2; in the test with Pseudomonas aeruginosa [14], 1.3; with Pseudomonas aeruginosa [16] it was 2.6. The “fold change (FC)” value in the test on Pseudomonas aeruginosa [18] amounted to 1324; with Pseudomonas aeruginosa [21] it was 1.1. The MIC against Pseudomonas aeruginosa [3] came to 4 µg/mL (≈ 7.32 µM); with Pseudomonas aeruginosa [4], 96 µg/mL (≈ 176 µM); against Pseudomonas aeruginosa [6], 2 µg/mL (≈ 3.66 µM); against Pseudomonas aeruginosa [15] it was 48 µg/mL (≈ 87.8 µM); against Pseudomonas aeruginosa [17], 2 µg/mL (≈ 3.66 µM); in the test with Pseudomonas aeruginosa [19] it was 2 µg/mL (≈ 3.66 µM). In addition, in the test on Pseudomonas aeruginosa [20], the MIC came to 48 µg/mL (≈ 87.8 µM).

Values taken from ChEMBL document CHEMBL1155152, “Increased expression of ampC in Pseudomonas aeruginosa mutants selected with ciprofloxacin” (2007).
